Laboratory results: US20200206172A1, “COMPOSITIONS AND METHODS FOR TREATING NEURODEGENERATIVE DISORDERS” (GNT Pharma Co., Ltd., priority 2018, published 2020)
Where “and” joins values, the source holds several entries; their conditions need not be identical. Equal values may be shown once.

How the values were obtained:
APP/PS1 mice = assay: Animal model of AD (APP/PS1 mice), preliminary data; assay type: in vivo; settings: oral, 2.5 mg/kg
[1] = target: T1, microsomal prostaglandin E(2) synthase-1 (mPGES-1) (Homo sapiens, UniProt O14684); settings: previous study [20]; cited from earlier work
T1 sequence (O14684 1-152): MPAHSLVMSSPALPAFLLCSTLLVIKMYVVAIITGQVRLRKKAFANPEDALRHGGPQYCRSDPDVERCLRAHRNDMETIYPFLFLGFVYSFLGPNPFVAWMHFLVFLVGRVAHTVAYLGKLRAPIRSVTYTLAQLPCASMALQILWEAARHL

dogs with CDS [2] = assay: Canine dementia scale (CADES) questionnaire in companion dogs with CDS; assay type: in vivo, dog
Excerpt: (§1) The companion animals tested in the study were 22 elderly dogs (12-19 years of age) diagnosed with CDS. Each dog enrolled for the present study met the following criteria: body weight <12 kg (regardless of gender), dogs which had lived with the owner for at least 90 days, dogs which were able to take oral medicine, dogs with CDS diagnosed by investigator (canine cognitive dysfunction rating (CCDR) scale ≥50 points) and dogs with informed consent of their owners. Dogs with a pregnancy or lactating, with hypersensitivity against salicylic acid derivatives, or with the underlying disease (i.e. renal dysfunction, visual loss, heart failure, or renal failure) were excluded. In addition, dogs which had participated any other clinical trials within 90 days or dogs which had not only CDS but also other neurodegenerative diseases were excluded.
(§2) This study was a randomized, blind, placebo-controlled clinical trial to investigate the efficacy and safety of Compound 2 in dogs with CDS. To investigate the efficacy of Compound 2, two questionnaires were evaluated: CCDR scale and canine dementia scale (CADES). To measure the safety of Compound 2, not only the occurrence of adverse events was investigated but also the vital signs, physical examination, and blood tests were performed in the dogs. Compound 2 was prescribed for oral administration of 10 mg/kg once-daily dosing for 8 weeks. Subjects 3 and 4 received Compound 2 additionally for 4 weeks with approval of the principal investigator. Instead of Compound 2, subjects 18-22 received placebo for 8 weeks. In this study, we allowed the dogs to be administered Compound 2 in various ways: mix with dietary supplement (subjects 1 and 3), mix with food (subjects 2 and 6), dissolve in water (subject 4), or capsule with water (subject 5), or chewable tablet with water (subjects 7-22).
(§3) Rating scales are essential tools for CDS diagnosis, staging, assessment, and careful monitoring of the disease symptoms as well as for evaluation of the efficacy of therapeutic strategies. Several rating scales have been developed during the last decade e.g. CCDR scale. To assess the severity of CDS in this study, two questionnaires (CCDR scale and CADES) were performed before and after oral administration of Compound 2 by a veterinarian. Questionnaires include a broad range of items measuring appetite, drinking behavior, barking, elimination behavior, day/night sleeping pattern, aimless behavior, adaptive capabilities, social behavior, perceptual ability, disorientation, and memory.
To ensure and confirm the CCDR scale, we used an additional questionnaire, CADES which contains 17 items distributed into four domains, related to changes in dogs' behaviors: spatial orientation, social interaction, sleep-wake cycle, and house soiling (Table 6). It can be classified according to various stages of cognitive impairment: mild, moderate, and severe cognitive impairment. It is known well that CADES is also suitable for long-term assessment of the progression of cognitive impairment in canine, and potentially as efficacy readout for treatments.

Stability test = assay type: physicochemical
Method: In stability test, Compound 2 was stable at 25° C. for at least 60 months. Additionally, the capsule and chewable formulations of Compound 2 were stable at 25° C. for at least 24 and 12 months, respectively.

dogs with CDS [3] = assay: Safety assessment in dogs with CDS; assay type: in vivo; settings: 10 mg/kg oral once daily
Method: as §2
During this study, the safety of Compound 2 in dogs with CDS was evaluated at every visit.

in vivo = assay: in vivo; parameters: species or system beagle dogs; settings: both sexes, beagle, dog, po
Method: The systemic toxic potential of Compound 2 in beagle dogs was investigated in Huntington Life Science, a large non-clinical contract research organization in Cambridgeshire, England. Three groups each comprising three males and three females, received Compound 2 at doses of 20, 65, or 200 mg/kg/day for 13 weeks. […] Consequently, 200 mg/kg/day was considered the no-observed-adverse-effect level (NOAEL) in dogs.

[4] = test system: mouse model of amyotrophic lateral sclerosis; settings: previous study [20]; cited from earlier work
[5] = Pharmacokinetics after oral administration in mice; assay type: in vivo; settings: mouse, plasma, 2.5 mg/kg
dogs with CDS [6] = assay: CCDR scale questionnaire in companion dogs with CDS, randomized blind placebo-controlled clinical trial; assay type: in vivo, dog; parameters: key to CCDR score, 4 weeks / CCDR score, 8 weeks / CCDR score, 12 weeks / CCDR score, 16 weeks (discontinuation) / CCDR score, 20 weeks (discontinuation) / CCDR score, 12 weeks (discontinuation): CCDR scale points (13 items); ≥50 indicates CDS
Excerpt: as §1, §2, §3
CCDR scale consists of 13 items based on CDS symptoms (Table 2). The 13 kinds of behaviors included various problems related to orientation (staring blankly, getting lost in the home), memory (lack of recognition of owners, house-soiling), apathy (reduced time spent active, avoiding contact with owners), impaired olfaction (difficulty finding food), and locomotion. These problems compromise both the dog's quality of life and the dog-owner bond. Scores ≥50 on the CCDR are indicative of CDS in the aged dogs (12-19 years of age). In this study, we compared the CCDR scores before and after administration of Compound 2 in dogs with CDS.

[7] = Pharmacokinetic study in beagle dogs; assay type: in vivo; settings: dog, plasma, oral, 20 mg/kg/day
Method: Based upon the safety and pharmacokinetic profile of Compound 2, a dose of 10 mg/kg/day was chosen to investigate safety and efficacy of Compound 2 in canine CDS.

G93A mice = assay: Animal model of amyotrophic lateral sclerosis (G93A mice), preliminary data; assay type: in vivo; settings: oral, 2.5 mg/kg
moderate-to-severe AD = settings: cited from earlier work
CDS dogs = settings: literature [17-19]; effect in most dogs disappeared at 8 weeks after treatment; cited from earlier work
[8] = 10 mg/kg oral once daily, per individual dog
[9] = change vs 0 week, per individual dog
[10] = change vs 0 week, 10 mg/kg oral once daily, per individual dog, 10 mg/kg

O=C(O)c1cc(NCCc2ccc(C(F)(F)F)cc2)ccc1O [Compound 2, 2-hydroxy-5-[2-(4-trifluoromethyl-phenyl)-ethylamino]-benzoic acid]
improvement in cognitive and motor functions (APP/PS1 mice): maximally beneficial effects
mPGES-1 inhibition, effective concentration [1]: effective at nanomolar concentrations
CADES score of house soiling (items 13-17), 4 weeks (dogs with CDS [2]; [8]): 5 (2×) and 9 and 16 and 14 and 22 (2×) and 11 and 3 and 19 (2×) and 17 and 10 and 25 and 18 and 4 and 0
CADES score of house soiling (items 13-17), 8 weeks (dogs with CDS [2]; [8]): 4 (2×) and 0 (3×) and 8 and 12 and 18 and 14 and 21 and 20 and 5 and 19 and 17 and 25
CADES score of sleep-wake cycles (items 11-12), 4 weeks (dogs with CDS [2]; [8]): 18 (4×) and 6 and 16 (2×) and 20 (3×) and 0 and 10 (2×) and 8 (2×) and 14 and 4
CADES score of sleep-wake cycles (items 11-12), 8 weeks (dogs with CDS [2]; [8]): 10 and 0 (4×) and 14 and 12 (3×) and 20 (2×) and 16 (2×) and 8 and 6
CADES score of social interaction (items 6-10), 4 weeks (dogs with CDS [2]; [8]): 5 (2×) and 14 (3×) and 17 (2×) and 13 (3×) and 0 and 25 and 15 and 10 and 18 and 20 and 19
CADES score of social interaction (items 6-10), 8 weeks (dogs with CDS [2]; [8]): 15 (2×) and 5 and 10 (2×) and 14 and 11 and 19 and 4 and 24 and 16 and 18 and 9 and 13 and 3
CADES score of spatial orientation (items 1-5), 4 weeks (dogs with CDS [2]; [8]): 5 (3×) and 20 (3×) and 18 (2×) and 16 and 17 and 24 (3×) and 25 (2×) and 13 and 21
CADES score of spatial orientation (items 1-5), 8 weeks (dogs with CDS [2]; [8]): 9 and 15 (3×) and 13 (2×) and 17 and 25 and 0 and 24 and 20 (2×) and 22 and 23 and 4
Total CADES score, 4 weeks (dogs with CDS [2]; [8]): 33 and 49 and 67 and 65 and 68 and 69 and 8 and 89 and 64 and 57 and 66 and 55 and 90 and 51 and 14
Total CADES score, 8 weeks (dogs with CDS [2]; [8]): 38 and 20 and 45 and 53 and 58 and 78 and 4 and 85 and 55 and 63 and 57 and 64 and 40 and 67 and 7
companion dogs showing improvement in spatial disorientation (dogs with CDS [2]; 4 weeks after administration, 10 of 17 dogs): 59%
companion dogs showing further improvement in social interaction at 8 weeks compared with 4 weeks (dogs with CDS [2]; 8 of 15 dogs): 53%
companion dogs significantly improved in sleep-wake cycle (item 11) (dogs with CDS [2]; 8 weeks after administration, 10 of 15 dogs): 67%
cognitive function by total CADES score (dogs with CDS [2]; 8 weeks after oral administration): significant improvement in cognitive function was observed from severe to moderate, weak, or normal level
companion dogs with beneficial effects on spatial orientation (dogs with CDS [2]; 8 weeks after oral administration, 9 of 15 dogs): 60%
CADES score of house soiling (items 13-17), change, 4 weeks (dogs with CDS [2]; [9]): 1 and −6 and −2 (2×) and −5 (2×) and −1 (2×) and −4 and −15 and 0 (5×) and −3 and −10
CADES score of house soiling (items 13-17), change, 8 weeks (dogs with CDS [2]; [9]): 0 (3×) and −15 and −10 (2×) and −7 and −5 and −1 (2×) and −18 and 1 and −2 and −3 and −6
CADES score of sleep-wake cycles (items 11-12), change, 4 weeks (dogs with CDS [2]; [9]): −2 (5×) and −4 and 4 (2×) and 0 (6×) and −18 and −6 and −12
CADES score of sleep-wake cycles (items 11-12), change, 8 weeks (dogs with CDS [2]; [9]): −10 (3×) and −4 (2×) and −2 (2×) and −6 and 0 (3×) and −18 and 2 and −14 and −16
CADES score of social interaction (items 6-10), change, 4 weeks (dogs with CDS [2]; [9]): −10 and 0 (6×) and −1 (3×) and −2 (2×) and −4 and −14 and −5 and −7 and −11
CADES score of social interaction (items 6-10), change, 8 weeks (dogs with CDS [2]; [9]): 0 (3×) and −9 and −8 and −5 and −2 and 1 and −10 and −1 (2×) and −3 and −6 and −7 and −13
CADES score of spatial orientation (items 1-5), change, 4 weeks (dogs with CDS [2]; [9]): −9 and −3 (2×) and −1 (3×) and −2 (2×) and 2 and −11 and 0 (4×) and 3 and 5 and −19
CADES score of spatial orientation (items 1-5), change, 8 weeks (dogs with CDS [2]; [9]): −5 and −8 and −6 and −3 (2×) and −1 and 3 (2×) and −16 and 0 (4×) and −2 and −20
Total CADES score change, 4 weeks (dogs with CDS [2]; [9]): −20 and −13 and −6 (2×) and −5 (2×) and −4 and −58 and 0 (2×) and −2 and −8 and 5 (2×) and −11 and −15 and −52
Total CADES score change, 8 weeks (dogs with CDS [2]; [9]): −15 and −42 and −28 and −17 and −14 and 3 and −62 and −4 and −9 and −6 and −2 and −10 (2×) and −18 and −59
stable at 25° C. for (Stability test): at least 60 months
blood toxicity test (dogs with CDS [3]): no significant changes
treatment-related adverse events (dogs with CDS [3]): did not occur
NOAEL at 13 weeks (in vivo): 200 mg/kg/day
motor function activity and life span [4]: increases of motor function activity and life span
AUC ([5]; read-out: AUC (area under the plasma level-time curve)): 9610 ± 1380 ng·h/mL
Cmax ([5]; read-out: Cmax (mean maximum plasma concentration)): 5190 ± 960 ng/mL
CCDR score, 4 weeks (dogs with CDS [6]; 10 mg/kg oral once daily, 4 weeks of administration, individual dog (subject No.)): 38 and 40 and 55 and 56 and 53 and 54 and 60 and 52 and 50 and 43 and 63 and 49 and 30
CCDR score, 8 weeks (dogs with CDS [6]; 10 mg/kg oral once daily, 8 weeks of administration, per individual dog): 34 and 46 and 41 and 51 and 54 and 27 and 50 and 53 and 59 and 43 and 30 and 42
beneficial effects maintained after the last administration (dogs with CDS [6]; aged companion dogs with severe CDS, oral): at least 4 weeks
CCDR score change, 4 weeks (dogs with CDS [6]; [10]): −22 and −11 (3×) and −9 (2×) and −12 (2×) and −18 and −5 and −1 and −7 and −6 and −16 and −10 and −44 and −13
CCDR score change, 8 weeks (dogs with CDS [6]; [10]): −26 and −5 and −23 and −16 and −11 and −40 and −24 and −6 and −2 and −10 and −9 and −7 and −19 and −44 and −20
CCDR score, 12 weeks (dogs with CDS [6]; subjects 3 and 4, 12-week administration): 32 and 43
CCDR score, 16 weeks (discontinuation) (dogs with CDS [6]; subjects 3 and 4, 4 weeks after discontinuation of 12-week administration): 38 and 44
CCDR score, 20 weeks (discontinuation) (dogs with CDS [6]; subjects 3 and 4, 8 weeks after discontinuation of 12-week administration): 36 and 43
CCDR score, 12 weeks (discontinuation) (dogs with CDS [6]; subjects 7, 8, 10, 11, 4 weeks after discontinuation of 8-week administration): 48 and 50 and 54
cognitive function on the CCDR scale (dogs with CDS [6]; within 4 weeks of oral administration): near normal cognitive function
AUC [7]: 75100 ng·h/mL
Cmax [7]: 10600 ng/mL
improvement in cognitive and motor functions (G93A mice): maximally beneficial effects

CC12CC3CC(C)(C1)CC(N)(C3)C2 [memantine]
mental function and ability to perform daily activities (moderate-to-severe AD): a small improvement

C#CCN(C)[C@H](C)Cc1ccccc1 [selegiline]
cognitive function in CDS dogs (CDS dogs): improved within the first 2 weeks
